Assay results: article PMC9605737, “Identification of 6ω-cyclohexyl-2-(phenylamino carbonylmethylthio)pyrimidin-4(3H)-ones targeting the ZIKV NS5 RNA dependent RNA polymerase” (Frontiers in Chemistry, 2022)

Columns and labels:
[1] = test system: ZIKV E protein; assay: Immunofluorescence assay of ZIKV E protein in infected Vero cells; assay type: cell-based, Zika virus; conditions: 25 μM, 72 h
Source text: (§1) ZIKV E protein is one of the most important structural proteins of ZIKV, which plays an important role in the correct assembly of the virus and evasion of the host’s innate immunity ([Jaimipuk et al., 2022]). We have verified that 4w has a significant inhibitory effect on ZIKV-infected cell lines from different sources at the molecular level, but it is unknown whether it has the same antiviral effect at the protein level. Therefore, in order to explore the inhibitory effect of 4w on ZIKV protein level, we added serially diluted 4w to ZIKV-infected Vero cells for 48 h, collected the total protein for WB experiments, and then detected the effect of 4w on ZIKV E and NS5 protein. At the same time, the inhibitory effect of 4w on ZIKV E protein was verified again by immunofluorescence experiment.
Vero cells were seeded at 2 × 10^5 cells/ml in a 24-well plate with cell slides, and 500 μl/well was cultured overnight in a 37°C, 5% CO2 incubator. ZIKV (MOI = 1) was added to infect at 37°C for 2 h, and then discarded the virus. The cells were washed twice with PBS and then added to 500 μl of 4w diluted in concentration gradients. At the same time, virus-only as a positive control and a medium-only as negative control were set. […] Microscopic examinations were performed on a Leica DMI4000B Microsystem (Wetzlar, Germany), and an image was recorded using the system.

[2] = test system: ZIKV NS5 protein; assay: Western blot of ZIKV NS5 protein in infected Vero cells; assay type: cell-based; conditions: 12.5 μM, 48 h
Source text: as §1
Vero cells were infected with ZIKV (MOI = 1) at 37°C for 2 h. Next, the different amounts of 4w were added to continue culturing for 48 h to extract the total protein in the cells. The total protein was separated in sodium dodecyl sulfate polyacrylamide gel electrophoresis (SDS-PAGE). […] The antibody signal was recorded and quantified using the Tanon-5200 Multi Imaging System.

[3] = test system: ZIKV RNA; assay: qRT-PCR viral load in supernatant of ZIKV-infected Vero cells; assay type: cell-based; conditions: Zika virus, read-out: EC50, inhibition of ZIKV RNA replication
Source text: In order to re-verify the inhibitory effect of 4w on ZIKV at the molecular level, we used ZIKV to infect cell lines of different origins (A549, Vero, Huh7 cells) and then treated with 4w in a concentration gradient. The change of viral load in the supernatant of cells after treatment was detected by qRT-PCR method.
Cells were infected with ZIKV SZ-WIV01 and then treated with 4w. The viral load in the supernatant was detected by Quantitative real-time polymerase chain reaction (qRT-PCR) at in different time periods after infection. Then the RNA from culture supernatant was extracted using the EasyPure ® Viral DNA/RNA Kit (TransGen Biotech, China) following the manufacturer’s instructions. Intracellular RNA extraction was according to trizol method. A one-step qRT-PCR kit RNA-direct™ Realtime PCR Master Mix (TOYOBO, Japan) and TaqMan probe were used to quantify the viral RNA produced. The primers (NS5 ZIKV 1086F: 5′-CCGCTGCCCAACACAAG-3′ and NS5 ZIKV 1086R: 3′-[…] C-5′) and probe (5′-FAM-[…]-TAMRA -3′) were used for amplification of the ZIKV NS5 region. A standard curve of the serial dilutions was used to quantify the viral RNA yield.
The 50% effective concentration (EC50) and 50% cytotoxic concentration (CC50) of the compound were calculated according to the Reed and Muench method, inhibition rate of ZIKV RNA yield- [(1-drug treatment/positive control) × 100]. […]

[4] = molecular target: T1, ZIKV RdRp (Zika virus, UniProt A0A024B7W1); assay: In vitro ZIKV RdRp activity assay (Syto9 fluorescence); assay type: biochemical; conditions: purified ZIKV RdRp domain, poly-U/ATP, 30°C 60 min; read-out: EC50, inhibition of ZIKV RdRp activity
T1 construct: we expressed and purified ZIKV RdRp domain; made in house; host or cells: Escherichia coli BL21 (DE3)
T1 sequence (A0A024B7W1 2793-3423): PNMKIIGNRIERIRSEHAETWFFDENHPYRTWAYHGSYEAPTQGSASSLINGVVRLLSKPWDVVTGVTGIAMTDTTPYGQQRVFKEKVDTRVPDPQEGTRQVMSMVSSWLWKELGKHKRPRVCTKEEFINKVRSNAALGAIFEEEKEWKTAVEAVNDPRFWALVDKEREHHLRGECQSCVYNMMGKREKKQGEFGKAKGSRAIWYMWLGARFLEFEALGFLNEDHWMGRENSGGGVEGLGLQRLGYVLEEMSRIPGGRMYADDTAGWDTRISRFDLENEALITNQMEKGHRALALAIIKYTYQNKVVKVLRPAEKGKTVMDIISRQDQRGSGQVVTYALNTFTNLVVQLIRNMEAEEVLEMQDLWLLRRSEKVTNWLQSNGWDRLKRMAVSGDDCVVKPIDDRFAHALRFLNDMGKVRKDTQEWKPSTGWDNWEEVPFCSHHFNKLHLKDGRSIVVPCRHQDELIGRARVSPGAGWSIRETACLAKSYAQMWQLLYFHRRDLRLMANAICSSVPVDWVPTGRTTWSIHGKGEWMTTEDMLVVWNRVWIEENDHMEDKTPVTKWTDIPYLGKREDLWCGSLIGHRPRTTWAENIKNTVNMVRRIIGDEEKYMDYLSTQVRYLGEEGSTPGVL
Source text: Through molecular docking experiments and cell thermal shift analysis, we supose that 4w may have a direct interaction with ZIKV RdRp. In order to verify whether the binding of 4w and NS5 protein is directly related to ZIKV RdRp, we expressed and purified ZIKV RdRp domain, and detected its activity according to the method described in the literature ([Qian et al., 2022]) (Figure 6A). […] Heparin is a protein chelating agent. […] Heparin was selected as the positive control drug in this experiment, and the syto9-only group was used as the negative control, the same volume of DMSO as a positive control.
The ZIKV RdRp was expressed and purified, and the protein expression and purification method was as described before ([Xu et al., 2017]; [Sáez-Álvarez et al., 2019]). 4w was diluted with protein dialysis buffer to 1,500 nM and stored for later use. In vitro RdRp polymerase activity assay was described previously ([Qian et al., 2022]), 1,500 ng of purified RdRp protein, gradient diluted 4w and positive control drug 5 μM, 2 mg/ml Poly-U, 20mM ATP, 1M Tris-HCl, 100 mg/ml BSA, 100mM MnCl2 was added to a 96-well PCR plate. After mixing, the reaction was performed at 30°C in the dark for 60 min. […] RdRp protein activity was detected on a real-time fluorescence quantitative PCR instrument.

[5] = test system: HCV NS5B RdRp; conditions: ref Shen (2015); cited from earlier work
[6] = test system: ZIKV; assay: Plaque assay, anti-ZIKV activity in Vero cells; assay type: cell-based, Zika virus
Experimental: Initially, the novel acetylarylamine-S-DACOs 4a-z were tested for their cytotoxicity and anti-ZIKV activity in Vero cells by plaque formation according to previously detailed procedure ([Xu et al., 2017]).
Vero cells were inoculated in a 12-well plate at 3 × 10^5 cells/ml and cultured overnight, the medium was discarded and cells were washed with PBS, then the ZIKV (MOI = 0.5) was added to infect at 37°C for 2 h. The cells were washed with PBS, and then a mixture of DMEM supplemented with 4% FBS and 2% low-melting agarose (Amresco, United States) was overlaid on the cells. Next, the cells were fixed with 4% paraformaldehyde for 15 min at 5d post-infection (hpi), washed twice with PBS and stained with 0.8% crystal violet for 10 min. Finally, an enzyme-linked fluorescence spot spectrometer (CTL, United States) was used for image acquisition.
The data and graphs were processed using GraphPad Prism8 software, expressed as mean ± standard deviation (Mean ± SD), comparison between groups using ANOVA, p < 0.05 was considered statistically significant.

## CCc1c(C2CCCCC2)nc(SCC(=O)Nc2cc(F)cc(F)c2)[nH]c1=O [Compound 4w, 2-{[4-cyclohexyl-5-ethyl-6-oxo-1,6-dihydropyrimidin-2-yl]thio}-N-(3,5-difluorophenyl)acetamide]
[1]
  inhibition of ZIKV E protein expression (immunofluorescence): completely inhibited
[2]
  inhibition of ZIKV NS5 protein expression (WB): significantly inhibit
[3]
  EC50: 6.87 ± 1.21 µM
[4]
  EC50: 11.4 ± 0.51 µM
[5]
  IC50: 0.102 µM
[6]
  SI (selectivity index, CC50/EC50 ratio): >26
[6]; Zika virus, plaque assay, independently in triplicate, read-out: EC50 (anti-ZIKV activity, plaque formation)
  EC50: 7.65 ± 0.31 µM
